US6974822B2, “3-isoquinolinone derivatives as matrix metalloproteinase inhibitors” (Warner-Lambert Company LLC, priority 2002, dated 2005)

Target: T1, human MMP-13 catalytic domain (hMMP-13CD) (Homo sapiens, UniProt P45452)
T1 construct: a human MMP-13 catalytic domain (“hMMP-13CD”)
Assay: Inhibition of MMP-13 catalytic domain (thiopeptolide substrate hydrolysis, IC50)
Assay type: biochemical
Source text: The assays measure the amount by which a test compound reduces the hydrolysis of a thiopeptolide substrate catalyzed by a matrix metalloproteinase enzyme. Such assays are described in detail by Ye et al., in Biochemistry, 1992;31(45):11231-11235, which is incorporated herein by reference. One such assay is described below in Biological Method 1.
Some of the particular methods described below use the catalytic domain of the MMP-13 enzyme, namely matrix metalloproteinase-13 catalytic domain (“MMP-13CD”), rather than the corresponding full-length enzyme, MMP-13. It has been shown previously by Ye Qi-Zhuang, Hupe D., and Johnson L. (Current Medicinal Chemistry, 1996;3:407-418) that inhibitor activity against a catalytic domain of an MMP is predictive of the inhibitor activity against the respective full-length MMP enzyme.
Thiopeptolide substrates show virtually no decomposition or hydrolysis at or below neutral pH in the absence of a matrix metalloproteinase enzyme. A typical thiopeptolide substrate commonly utilized for assays is Ac-Pro-Leu-Glythioester-Leu-Leu-Gly-OEt. […] The change in absorbance at 405 nm is monitored on a Thermo Max microplate reader (molecular Devices, Menlo Park, Calif.) at room temperature (22° C.). […]
Some representative compounds of Formula I have been evaluated for their ability to inhibit MMP-13. […]

O=C(O)c1ccc(Cn2ccc3ccc(C#CCn4ccnn4)cc3c2=O)cc1 [4-[1-oxo-7-(3-[1,2,3]triazol-1-ylprop-1-ynyl)-1H-isoquinolin-2-ylmethyl]benzoic acid]
IC50: > 50 µM
